Values quoted from earlier work, collected in US20100210643A1, “sGC STIMULATORS, sGC ACTIVATORS AND COMBINATIONS FOR THE TREATMENT OF UROLOGICAL DISORDERS” (BAYER SCHERING PHARMA AKTIENGESELLSCHAFT, priority 2007, published 2010).

Key:
[1] = tested on: bladder of female Guinea Pigs; details: literature (Gillespie 2004)
[2] = tested on: pre-contracted human prostate tissue; details: in vitro; literature (Uckert 2001)

CC(C)Cn1c(=O)n(C)c(=O)c2[nH]cnc21 [IBMX]
relaxation of bladder [1]: could relax

CCCOc1ccccc1-c1nc2nn[nH]c2c(=O)[nH]1 [Zaprinast]
relaxation of bladder [1]: ineffective | relaxation of pre-contracted human prostate tissue [2]: able to relax
